Reference: patent US20190110472A1, “ACTIVE INGREDIENT COMPOSITIONS COMPRISING N-ALKENOYL-N-ALKYLGLUCAMIDES AND THE USE THEREOF” (Clariant International, Ltd., priority 2017, published 2019)

Experiments:
[1] = Dynamic surface tension, bubble pressure method (BP2100 tensiometer, Krüss); format: physicochemical; conditions: for Dynamic surface tension [mN/m] 20 ms: surface age 20 ms; for Dynamic surface tension [mN/m] 50 ms: surface age 50 ms; for Dynamic surface tension [mN/m] 100 ms: surface age 100 ms; for Dynamic surface tension [mN/m] 200 ms: surface age 200 ms
Method: Dynamic surface tension was determined via the bubble pressure method (BP2100 tensiometer, Krüss). Given a timespan of relevance for the spray application of agrochemicals in aqueous dilution (called the surface age in the bubble pressure method) of 200 milliseconds (ms), the value for dynamic surface tension in [mN/m] correlates with the adhesion on plants that are difficult to wet, such as barley (cereal). A value of 50 mN/m (at 20-21° C.) with respect to water (72.8 mN/m) results in an improvement in the adhesion from “zero adhesion” (0%) to about 50% (Baur P., Pontzen R.; 2007; Basic features of plant surface wettability and deposit formation and the impact of adjuvant; in R. E. Gaskin ed. Proceedings of the 8th International Symposium on Adjuvants for Agrochemicals; Publisher: International Society for Agrochemical Adjuvants (ISAA), Columbus, Ohio, USA).

indicator plants = experiment: Plant compatibility after application to indicator plants; format: in vivo; conditions: concentrations of 0.1, 0.3, 0.8, 1.0, 1.5, 2 and 3 g/L
[2] = Appearance and stability of spray liquids after 24 h; format: physicochemical
Method: The composition of spray liquids A1-A18 is specified hereinafter. These spray liquids are produced by mixing the various test substances in water, and the appearance and stability of the spray liquid were assessed after 24 h.
The inventive alkenoylglucamides (A1 to A6) are self-emulsifying in the spray liquid and form cloudy homogeneous emulsions that are stable over 24 h. By contrast, spray liquids comprising non-inventive saturated alkylglucamides (A7-A13) of similar chain length are not phase-stable and flocculate.

apple leaf cuticles = experiment: Membrane penetration test of metribuzin through isolated apple leaf cuticles; format: in vitro ADME; conditions: Sencor 600 SC, metribuzin 2.25 g/L, 10° C./56% rel. air humidity
Method: The potential of the test substances, which is independent of the surfactant action, to promote foliar absorption of active agrochemical ingredients was determined in membrane penetration tests with apple leaf cuticles using the example of metribuzin. […] Efforts are therefore being made to find additives that promote wetting but only slightly increase the uptake of the active ingredient, such that only a minimum portion of the active ingredient is taken up into the leaf. The plant cuticle is a lipophilic solubility membrane (lipid membrane) without pores or holes, and the results described are also expected for other nonporous lipophilic solubility membranes with these or other electrolyte active ingredients. The principle of the method has been published (e.g. WO-A-2005/194844; Baur, 1997; Baur, Grayson and Schönherr 1999; Baur, Bodelon and Lowe, 2012), and only the specifics and differences in the method are elucidated hereinafter. The leaf cuticles were enzymatically isolated in the manner described in the literature from apple leaves of orchard trees in a commercial stone fruit growing facility near Frankfurt am Main in 2016. The stomata-free cuticles were first dried under air and then installed into stainless steel diffusion cells. After application to the original upper side of the leaf and evaporation of the test liquid, i.e. of the aqueous preparations of the active ingredients without or with the glucamide-containing spray liquids or comparative compositions, the diffusion cells were transferred into thermostatted blocks and charged with aqueous liquid. The water used to make up the aqueous test liquids was local tap water (of known composition). At regular intervals, aliquot samples were taken and the proportion of active ingredient penetrated was determined by HPLC. During the experiment, the temperature in the system (block, diffusion cells, liquids, etc.) and the air humidity above the spray deposit on the cuticle were known exactly and were monitored. […] In each case, the geometric mean values of the penetration for intact membranes at the mean measurement times are given. According to the variant (active ingredient×test additive/formulation), 7-8 repetitions were set up. The coefficient of variation was below 35%, which is a typical biological variability for penetration for numerous plants (Baur, 1997).

[3] = Droplet size distribution of spray (Malvern Spraytec, ID(3)12002 injector nozzle, 3 bar); format: physicochemical; conditions: summary of Table 4, no tankmix partner
From the text: A Malvern Spraytec “real-time spray sizing system” was used to determine the droplet size distribution. For this purpose, the system (STP5311, Malvern Instruments GmbH, Heidelberg, Germany) was installed in a specially constructed spray cabin, with the option of being able to model real spray applications as carried out in practice with freely adjustable pressure for various hydraulic nozzles and freely adjustable distances (nozzle-target surface). The spray cabin can be darkened and all disruptive parameters can be eliminated. For the measurements, the ID(3)12002 (Lechler) injector nozzles were used. The pressure set was varied, and mean pressure was kept constant at 3 bar for the measurements reported hereinafter. The temperature and relative air humidity varied between 21.5° C. and 29° C. and between 33% and 56% respectively. In each test series, tap water was measured as internal standard. […]
As a further measurement parameter, the proportion by volume of the droplets having diameter <210 μm (“Vol 210”) was determined and expressed in relation to the proportion by volume of droplets having diameter <105 μm (“Vol 210 / Vol 105”). In addition, the percentage reduction in the proportion by volume of droplets having diameter <105 μm in the case of use of spray liquids containing the test substances was calculated in comparison to the use of tap water as internal standard (“Red 105”).

| SMILES | Dynamic surface tension [mN/m] 20 ms ([1]; amount 0.03 % by wt.) | Dynamic surface tension [mN/m] 20 ms ([1]; amount 0.1 % by wt.) | Dynamic surface tension [mN/m] 20 ms ([1]; amount 0.3 % by wt.) | Dynamic surface tension [mN/m] 50 ms ([1]; amount 0.03 % by wt.) | Dynamic surface tension [mN/m] 50 ms ([1]; amount 0.1 % by wt.) | Dynamic surface tension [mN/m] 50 ms ([1]; amount 0.3 % by wt.) | Dynamic surface tension [mN/m] 100 ms ([1]; amount 0.03 % by wt.) | Dynamic surface tension [mN/m] 100 ms ([1]; amount 0.1 % by wt.) | Dynamic surface tension [mN/m] 100 ms ([1]; amount 0.3 % by wt.) | Dynamic surface tension [mN/m] 200 ms ([1]; amount 0.03 % by wt.) | Dynamic surface tension [mN/m] 200 ms ([1]; amount 0.1 % by wt.) | Dynamic surface tension [mN/m] 200 ms ([1]; amount 0.3 % by wt.) | Plant compatibility (necroses or other symptoms such as leaf curl-up or deformation) (indicator plants) | further results |
| --- | --- | --- | --- | --- | --- | --- | --- | --- | --- | --- | --- | --- | --- | --- |
| CCCCCCCCCCCC(=O)N(C)CC(O)C(O)C(O)C(O)CO (stereo not drawn) [dodecanoyl-N-methylglucamide] | 70.6 mN/m | 70.0 mN/m | 67.0 mN/m | 67.3 mN/m | 66.8 mN/m | 61.9 mN/m | 63.0 mN/m | 60.1 mN/m | 58.8 mN/m | 57.9 mN/m | 51.4 mN/m | 48.7 mN/m | – | – |
| CCCCCCCCC(=O)N(C)C[C@H](O)[C@@H](O)[C@H](O)[C@H](O)CO [N-methyl-N-nonanoylglucamine] | – | – | – | – | – | – | – | – | – | – | – | – | no necroses or other symptoms | – |
| C=CCCCCCCCC(=O)N(C)CC(O)C(O)C(O)C(O)CO (stereo not drawn) [dec-9-enoyl-N-methylglucamide] | – | – | – | – | – | – | – | – | – | – | – | – | – | Water solubility in the spray liquid [2]: completely water-soluble; Appearance ([2]; spray liquid in water, assessed after 24 h): clear transparent spray liquid; Dynamic surface tension [mN/m] 20 ms ([1]; amount 0.06 % by wt.): 70.2 mN/m; Dynamic surface tension [mN/m] 20 ms ([1]; amount 0.125 % by wt.): 66.4 mN/m; Dynamic surface tension [mN/m] 20 ms ([1]; amount 0.25 % by wt.): 59.7 mN/m; Dynamic surface tension [mN/m] 50 ms ([1]; amount 0.06 % by wt.): 68.9 mN/m; Dynamic surface tension [mN/m] 50 ms ([1]; amount 0.125 % by wt.): 63.7 mN/m; Dynamic surface tension [mN/m] 50 ms ([1]; amount 0.25 % by wt.): 56.6 mN/m; Dynamic surface tension [mN/m] 100 ms ([1]; amount 0.06 % by wt.): 67.6 mN/m; Dynamic surface tension [mN/m] 100 ms ([1]; amount 0.125 % by wt.): 61.8 mN/m; Dynamic surface tension [mN/m] 100 ms ([1]; amount 0.25 % by wt.): 55.5 mN/m; Dynamic surface tension [mN/m] 200 ms ([1]; amount 0.06 % by wt.): 67.4 mN/m; Dynamic surface tension [mN/m] 200 ms ([1]; amount 0.125 % by wt.): 61.0 mN/m; Dynamic surface tension [mN/m] 200 ms ([1]; amount 0.25 % by wt.): 54.1 mN/m |
| CCC=CCCCCCCCC(=O)N(C)CC(O)C(O)C(O)C(O)CO (stereo not drawn) [Dodec-9-enoyl-N-methylglucamide] | 70.0 mN/m | 56.1 mN/m | 44.5 mN/m | 66.1 mN/m | 47.7 mN/m | 38.5 mN/m | 61.9 mN/m | 44.0 mN/m | 36.0 mN/m | 58.6 mN/m | 40.1 mN/m | 33.4 mN/m | no necroses or other symptoms | Mean penetration for metribuzin after time in % 1 day (apple leaf cuticles; test substance 0.05 % by wt.): 2.9%; Mean penetration for metribuzin after time in % 2 days (apple leaf cuticles; test substance 0.05 % by wt.): 4.6%; Mean penetration for metribuzin after time in % 1 day (apple leaf cuticles; test substance 0.1 % by wt.): 3.9%; Mean penetration for metribuzin after time in % 2 days (apple leaf cuticles; test substance 0.1 % by wt.): 6.5%; Mean penetration for metribuzin after time in % 1 day (apple leaf cuticles; test substance 0.14 % by wt.): 5.7%; Mean penetration for metribuzin after time in % 2 days (apple leaf cuticles; test substance 0.14 % by wt.): 8.6%; Effect on fine droplet content (in words) [3]: distinct reduction in the fine droplet content; Lowering of the dynamic surface tension (in words) ([1]; summary of Table 2): particularly large |
